Experimental data: US7354910B2, “Agent for treating inflammatory bowel diseases” (Seikagaku Kogyo Kabushiki Kaisha, priority 2001, dated 2008)

Test system: trinitrobenzenesulfonic acid (TNBS)-induced inflammatory bowel disease model
Test: Effect of HA on TNBS-induced inflammatory bowel disease model
Format: in vivo, rat
Experimental: An inflammatory bowel disease model was prepared by carrying out irrigation of colon of a rat with 0.5 ml of 50 mg/ml TNBS (50% ethanol solution). The TNBS-induced inflammatory bowel disease model is a generally used model which has been established as an induced inflammatory bowel disease model (e.g., see GASTROENTEROLOGY, Vol. 109, No. 4, pp. 1344-1367 (1995), and the like).
In order to examine effect of HA on inflammatory bowel diseases, the following drug effect and pharmacological test was carried out using the inflammatory bowel disease model prepared in the above.
The inflammatory bowel disease model animals were divided into the following groups according to respective tested substances, and 2 ml of physiological saline solution (0.3% (w/v)) of each of the following tested substances was injected into the tail vein of each experimental animal.
In the control group, the first administration was carried out just after the preparation of the above model, and then the administration was continuously carried out once a day for 20 days.
In the HA post-administered group, the first administration was carried out just after the preparation of the above model, and then the administration was continuously carried out once a day for 20 days.
In the HA pre-administered group, the first administration was carried out 24 hours before the preparation of the above model, and then the administration was continuously carried out once a day for 20 days.
During the administration period of tested substances, surviving conditions of the animals were observed every day.
In addition, observation and measurement of the following points were carried out on the animals survived on the 20th day after the first administration.
Also, the following numerical values are expressed as “average value±standard error”.
The large intestine was excised and cut open, and the contents were washed using physiological saline. After the adhered moisture was removed, the weight of the large intestine tissue was measured to calculate the weight per 1 cm bowel tissue. Also, the following numerical values are expressed as “average value±standard error”.
Section samples of bowel tissue were prepared and observed under a light microscope.

[1] = HA post-administered group in comparison with the control group, 20th day, light microscope, FIG. 3

sodium hyaluronate [HA]
conditions of diarrhea (HA administered groups, animals survived on the 20th day after the first administration, severe in control group): hardly observed
cell infiltration, microscopic observation of bowel tissue [1]: inhibited significantly
edema, microscopic observation of bowel tissue [1]: significantly alleviated
body weight (average value±standard error) (HA post-administered group, 20th day after the first administration, control 175 ± 4 g, p<0.001): 203 ± 3 g
weight of the large intestine tissue per 1 cm bowel tissue (bowel tissue edema; average value±standard error) (HA post-administered group, 20th day after the first administration, control 448 ± 60, p<0.001): 51 ± 1 mg/cm bowel tissue
survival ratio (HA pre-administered group (first administration 24 hours before model preparation, 2 ml of 0.3% (w/v) into tail vein once a day), after a lapse of 200 hours): 100%
survival rate in comparison with the control group (each of the HA administered groups (post and pre), 2 ml of 0.3% (w/v) i.v. once a day for 20 days, p=0.0086 Logrank test, FIG. 1): significantly improved
